Laboratory results published in patent US8624079B2, “Knockin mouse with a disruption in a PXR gene expressing human PXR” (ITI Scotland Limited, priority 2007, dated 2014).
Entries after “also recorded” stand apart in the source; their conditions may differ. Read-outs that look alike come from different tables or passages of the source.

Key:
[1] = system: components of drug metabolism pathways; conditions: inducer of components of drug metabolism pathways; species in which it is known to act more potently; cited from earlier work
Cyp3a11 [2] = conditions: wild-type mice (Ma et al. 2007); cited from earlier work
Cyp2b10 [3] = test: Cyp2b10 protein expression of treated mice by SDS-PAGE and Western blotting; conditions: for Cyp2b10 induction profile (Western blot and PROD, liver microsomes): wild-type vs huCAR mice, increasing amounts; for Cyp2b10 induction (Western blot and PROD activity): CITCO 10 mg/kg
Protocol: (§1) Dosing solutions were prepared on the day of administration by adding corn oil to the requisite quantity of test substance and stirring to obtain a solution or fine suspension. The concentration of PCN was 10 mg/ml and Rif 2.5 mg/ml of supplied chemical, without any correction for purity. Records of preparation were retained.
Control animals were administered vehicle (corn oil) daily by intraperitoneal injection. The volume of vehicle and solutions of inducing agents administered was 10 ml/kg bodyweight. This route of administration was chosen for consistency with previously published work. […]
(§2) Quantification of Cyp3a11, Cyp2b10 and PXR protein in liver microsomes of all mice samples was carried out by SDS-PAGE and Western blotting. To detect murine and human PXR protein, an antibody (RF8) was employed. For the identification of Cyp3a and Cyp2b, […] were used, (CH32 and CH4, respectively).

[4] = Protocol: For the same animals, plasma levels of alanine aminotransferase (ALT), alkaline phosphatase (ALP) and aspartate aminotransferase (AST) were also measured (see FIG. 40). […] Both compounds were administered at 40 mg/kg.
Plasma levels of alanine aminotransferase (ALT), alkaline phosphatase (ALP) and aspartate aminotransferase (AST) were also measured (see FIG. 46).

Cyp2b10 [5] = test: pentoxyresorufin-O-deethylation (PROD) and BROD activity assay in liver microsomes of treated mice
Cyp3a11 [6] = test: Cyp3a11 protein expression in liver microsomes of treated mice by SDS-PAGE and Western blotting; conditions: for Cyp3a11 expression in liver (Western blot): single injection 0, 1, 10, 50 mg/kg, 48 hours
Protocol: as §1
The volume of vehicle and solutions of inducing agents administered was 10 ml/kg bodyweight. This route of administration was chosen for consistency with previously published work. […]
as §2

cytochrome P450 enzymes = conditions: single ip; for induction of testosterone 16-beta-hydroxylation: 1 mg/kg
Protocol: The study consisted of 3 animals per group. Control groups consisted of mice treated with either corn oil daily for 4 days or mice administered a single injection of corn oil. The treated mice were dosed with inducing agents as detailed in Table 3.1.
PXR activity was determined by measuring the metabolism of a number of cytochrome P450 substrates which are metabolised to different extents by different cytochrome P450 enzymes. The following assays were performed: • 7-benzyloxyquinoline (BQ) activity was determined in liver microsomes. • Testosterone hydroxylase activity was determined in liver microsomes (LMS HPLC-006). • The specific activities of these reactions was expressed per mg protein as determined using the Lowry assay (LMS Spec-0001).

liver cells = test: BrdU incorporation in liver (hepatic cell proliferation, S-phase labelling index); format: in vivo, mouse; conditions: wild-type and huCAR mice
[7] = Pentobarbitone sleeping test; format: in vivo, mouse; conditions: single ip dose 25 mg/kg
Protocol: In this experiment, the activity of these transcription factors in combination was determined by measuring the barbiturate induced sleeping time. Sleeping time has been known for many years to be directly proportional to the hepatic cytochrome P450 activity and this activity can be at least in part ascribed to the P450 levels in the liver determined by CAR and PXR function.
Mice were given a single intraperitoneal dose of Narcoren (sodium pentobarbitone; purchased via a Veterinary Consultant; distributed by Merial GmbH, Germany) at 25 mg/kg of body weight. The time taken for the mice to lose, and subsequently to regain, their righting reflex was measured.

[8] = wild type mice, TCPOBOP 1 mg/kg

CC(=O)[C@H]1[C@H](C#N)C[C@H]2[C@@H]3CC=C4C[C@@H](O)CC[C@]4(C)[C@H]3CC[C@@]21C [PCN, 5-Pregnen-3β-ol-20-one-16α-carbonitrile]
More potent in: [1]: mouse | induction of Cyp3a11 mRNA (Cyp3a11 [2]): strongly induced

Clc1ccccc1C(c1ccccc1)(c1ccccc1)n1ccnc1 [Clotrimazole]
More potent in: [1]: mouse

C[C@@H]1C[C@H]2[C@@H]3CCC4=CC(=O)C=C[C@]4(C)[C@@]3(F)[C@@H](O)C[C@]2(C)[C@@]1(O)C(=O)CO [dexamethasone]
Cyp2b10 expression (Cyp2b10 [3]; mouse, in vivo, 10 mg/kg): induced Cyp2b10 expression in both wild-type and huCAR mice | Cyp2b10 induction (Western blot), comparison (Cyp2b10 [3]; mouse, in vivo, 10 mg/kg): less pronounced in huCAR than in wild-type mice | Cyp2b10 expression in liver (Western blot) (Cyp2b10 [3]; mouse, in vivo, 40 mg/kg): still induced | induction of Cyp2b10 (Western blot) (Cyp2b10 [3]; mouse, in vivo, 60 mg/kg): induced | mortality ([4]; huPXR mice, dexamethasone 60 mg/kg): One dexamethasone-treated huPXR mouse died | increase in plasma ALT levels and liver weights ([4]; mouse, in vivo, 30 mg/kg): clearly more pronounced in mice lacking murine PXR | Cyp2b10 induction (PROD activity), comparison (Cyp2b10 [5]; huCAR vs wild type mice, 10 mg/kg): weaker in huCAR than in wild type mice | PROD activity (Cyp2b10 [5]; koCAR mice, 40 mg/kg): still induced | PROD activity (Cyp2b10 [5]; wild-type, huPXR and koPXR mice, 60 mg/kg): corresponding results were obtained

Clc1cnc(Oc2ccc(Oc3ncc(Cl)cc3Cl)cc2)c(Cl)c1 [TCPOBOP]
Cyp3a11 expression (Western blot and BQ activity) (Cyp3a11 [6]; [8]): somewhat induced | Cyp2b10 expression (Western blot and PROD activity) (Cyp2b10 [3]; huCAR mice, TCPOBOP 1 mg/kg): did not significantly induce | Cyp2b10 induction in liver (Western blot, densitometry) (Cyp2b10 [3]; koCAR mice, 1 mg/kg): no Cyp2b10 was induced | Cyp2b10 protein expression and PROD activity (Cyp2b10 [3]; koPXR mice, TCPOBOP 1 mg/kg): comparable to wild type | Cyp2b10 expression (Western blot and PROD activity) (Cyp2b10 [3]; [8]): induced; also recorded: strongly induced | Cyp2b10 induction profile (Western blot and PROD, liver microsomes) (Cyp2b10 [3]): more strongly in the wild-type than huCAR mice | induction of testosterone 16-beta-hydroxylation (cytochrome P450 enzymes; huPXR mice): 1.7 fold | induction of 6-beta-hydroxylation of testosterone (cytochrome P450 enzymes; wild type and huPXR mice, TCPOBOP 0.3 and 1 mg/kg): inducible in both strains of mouse | induction of testosterone 16-beta-hydroxylation (cytochrome P450 enzymes; wild type mice): approximately 6 fold | induction of testosterone 16-alpha-hydroxylation (cytochrome P450 enzymes; wild type mice, TCPOBOP 0.3 and 1 mg/kg): significantly induced | fraction of BrdU positive cells in the liver (liver cells; single dose 3 mg/kg, one day after dose): elevated counts of BrdU positive liver cells only in wild-type animals | More potent in: [1]: mouse

Clc1ccc(-c2nc3sccn3c2C=NOCc2ccc(Cl)c(Cl)c2)cc1 [CITCO, 6-(4-chlorophenyl)imidazo[2,1-b][1,3]thiazole-5-carbaldehyde O-(3,4-dichlorobenzyl)oxime]
Cyp3a11 expression in liver (Western blot) (Cyp3a11 [6]; huCAR mice): clearly induced | Cyp3a11 expression in liver (Western blot) (Cyp3a11 [6]; wild type mice): did not induce | Cyp2b10 induction (Western blot and PROD activity) (Cyp2b10 [3]; huCAR mice): strong induction | Cyp2b10 expression in liver (Western blot) (Cyp2b10 [3]; huCAR mice, single injection 0, 1, 10, 50 mg/kg, 48 hours): clearly induced | Cyp2b10 induction (Western blot and PROD activity) (Cyp2b10 [3]; koPXR mice): Some induction | Cyp2b10 expression in liver (Western blot) (Cyp2b10 [3]; wild type mice, single injection 0, 1, 10, 50 mg/kg, 48 hours): did not induce | Cyp2b10 induction (Western blot and PROD activity) (Cyp2b10 [3]; wild-type mice): not substantially induced | Cyp2b10 induction profile (Western blot and PROD, liver microsomes) (Cyp2b10 [3]): stronger response in huCAR than in the wild-type | fraction of BrdU positive cells in the liver (liver cells; 20 mg/kg 4 times daily, one day after final dose): elevated counts of BrdU positive liver cells only in huCAR animals, not in the wild-type | More potent in: [1]: human | PROD activity (Cyp2b10 [5]; huCAR mice, increasing amounts of CITCO): marked, dose-dependent induction of PROD activity

CCCC(C)C1(CC)C(=O)NC(=O)NC1=O (stereo not shown) [pentobarbitone, sodium pentobarbitone]
Sleeping time ([7]; PXR/CAR hum (double humanised) male mouse): 34 min | Sleeping time ([7]; wt male mouse): 21 min
